# Patent publication US20090104246A1 (priority 2004, published 2009)
# Tests used:
# [1] = Liquid formulations of sirolimus with PEG 200, ethanol and water; concentrations by liquid chromatography; assay type: physicochemical; details: 4 mg/ml formulation with PEG 200, ethanol and water
# From the text: In accordance with exemplary embodiments of the present invention, a series of liquid formulations were developed for the local or regional delivery of water insoluble compounds such as sirolimus and its analogs, including CCl-779, ABT-578 and everolimus, through weeping balloons and catheter injection needles. […] These liquid formulations increase the apparent solubility of the pharmacologically active but water insoluble compounds by two to four orders of magnitude as compared to the solubility limits of the compounds in water. These liquid formulations rely on the use of a very small amount of organic solvents such as Ethanol (typically less than two percent) and a larger amount of safe amphiphilic (of or relating to a molecule having a polar, water soluble group attached to a non-polar, water insoluble […]) excipients such as polyethylene glycol (PEG 200, PEG 400) and vitamin E TPGS to enhance the solubility of the compounds. These liquid formulations of highly water insoluble compounds are stable and readily flowable at room temperature. Certain excipients, such as Vitamin E TPGS and BHT may be utilized to enhance the storage stability of sirolimus compounds through their anti-oxidation properties. […]
# cell viability = assay: Cell viability assay; assay type: cell-based
# From the text: (§1) The multiple curves represent various concentrations of topotecan ranging from zero to three hundred nanomolar concentrations.
# (§2) The multiple curves represent various concentrations of etoposide ranging from zero to eight hundred nanomolar concentrations.
# [2] = tested on: human coronary artery smooth muscle cells; assay: Anti-proliferative activity in synchronized cultured human coronary artery smooth muscle cells stimulated with two percent fetal bovine serum; assay type: cell-based; details: for effect on the anti-proliferative rapamycin dose response curve: agent added to rapamycin-treated synchronized cells, topotecan to 300 nanomolar, etoposide to eight hundred nanomolar, Panzem to 100 micromolar
# From the text: as §1, §2
# The multiple curves represent various concentrations of Panzem® ranging from zero to 100 micromolar concentrations.
# [3] = tested on: human smooth muscle cells; assay: Cladribine Example, PDGF-stimulated cell proliferation (cell count), smooth muscle cells; assay type: cell-based; details: from the IC50 values
# Protocol: To assess the ability of cladribine to prevent cell proliferation, human smooth muscle or endothelial cells (Clonetics, Walkersville, Md.) were seeded at a density of 2000 cells/cm^2 (approximately 3600 cells/well) into each well of 12-well plates and cultured with 1.5 ml of growth medium containing five percent fetal calf serum (FCS). After twenty-four hours, the growth medium was changed and fresh medium containing 10 ng/ml platelet-derived growth factor AB (PDGF AB; LIFE Technologies), as well as various concentrations of cladribine (0.001-10,000 nM) were added with triplicate wells. Medium was replaced with fresh cladribine-containing medium after three days. On day six, cells were detached by trypsinization to yield a cell suspension, lightly centrifuged to pellet and then counted manually using a Neubauer hemocytometer system. Cell viability was assessed by trypan blue exclusion.
# [4] = tested on: human coronary artery smooth muscle cells; assay: Anti-proliferative activity in non-synchronized cultured human coronary artery smooth muscle cells stimulated with two percent fetal bovine serum; assay type: cell-based; details: for effect on the anti-proliferative rapamycin dose response curve: agent added to rapamycin-treated non-synchronized cells, mycophenolic acid zero to one thousand nanomolar, cladribine zero to nine hundred nanomolar
# From the text: The multiple curves represent various concentrations of mycophenolic acid ranging from zero to one thousand nanomolar concentrations.
# FIG. 58 illustrates, in graphical format, the anti-proliferative activity of cladribine in non-synchronized cultured human coronary artery smooth muscle cells stimulated with two percent fetal bovine serum.
# The multiple curves represent various concentrations of cladribine ranging from zero to nine hundred nanomolar concentrations.
# [5] = In vivo release kinetics from rapamycin/cladribine EVA/BMA coating on Bx Velocity stents, Yorkshire pigs; set-up: species or system porcine; details: 600 microgram basecoat, 200 microgram BMA topcoat
# From the text: (§3) The basecoat is applied to Bx Velocity® stents and implanted into Yorkshire pigs.
# as §3
# [6] = In vivo release kinetics from rapamycin/mycophenolic acid EVA/BMA coating, porcine pharmacokinetics studies; details: 180 micrograms each of rapamycin and mycophenolic acid in 600 microgram basecoat, with or without BMA topcoat
# [7] = tested on: human coronary artery smooth muscle cell proliferation; assay: In vitro cell culture study of coronary artery smooth muscle cell proliferation; assay type: cell-based
# From the text: FIG. 51 is a graph of the inhibition of coronary artery smooth muscle cells by trichostatin A in a cell culture study.
# tumor cell lines = details: cited from earlier work
# [8] = tested on: human coronary artery smooth muscle cell survival; details: 6.6 nanomolar to 30,000.00 nanomolar
# From the text: In vitro cytotoxicity tests or assays may be utilized to determine if drugs, agents and/or compounds are potentially toxic and the level of toxicity. Essentially, in vitro cytotoxicity assays determine acute necrotic effects by a drug causing direct cellular damage. The idea behind these assays is that toxic chemicals affect basic functions of cells which are common to all cells. […] There are a number of different assays that may be utilized. In the present invention, the cytotoxicity assay utilized is based upon the measurement of cellular metabolic activity. A reduction in metabolic activity is an indication of cellular damage. Tests that can measure metabolic function measure cellular ATP levels or mitochondrial activity via MTS metabolism. FIG. 69 is a graphical representation of the results of an MTS assay of Panzem®.
compound,measurement,setting,value
"CO[C@H]1C[C@@H]2CC[C@@H](C)[C@@](O)(O2)C(=O)C(=O)N2CCCC[C@H]2C(=O)O[C@H]([C@H](C)C[C@@H]2CC[C@@H](O)[C@H](OC)C2)CC(=O)[C@H](C)/C=C(\C)[C@@H](O)[C@@H](OC)C(=O)[C@H](C)C[C@H](C)/C=C/C=C/C=C/1C [Rapamycin, rapamycin]",concentration relative to the solubility of sirolimus in water,[1],about four hundred to about one thousand times higher
"CC[C@@]1(O)C(=O)OCc2c1cc1n(c2=O)Cc2cc3c(CN(C)C)c(O)ccc3nc2-1 [Topotecan, topotecan]",cytotoxicity in cell viability assay,cell viability; concentrations up to one micromolar,non-cytotoxic
same,effect on the anti-proliferative rapamycin dose response curve,[2],potentiate the anti-proliferative activity of rapamycin
"Nc1nc(Cl)nc2c1ncn2[C@H]1C[C@H](O)[C@@H](CO)O1 [Cladribine, 2-chlorodeoxyadenosine]",potency on smooth muscle cells relative to endothelial cells,[3],approximately twice as potent
same,effect on the anti-proliferative rapamycin dose response curve,[4],potentiate the anti-proliferative activity of rapamycin
same,inhibition of human coronary artery smooth muscle cell proliferation,"[4]; non-synchronized cells, two percent fetal bovine serum",completely inhibits
same,in vivo elution from EVA/BMA basecoat compared with rapamycin,[5],elutes more rapidly than rapamycin
"COc1cc([C@@H]2c3cc4c(cc3[C@@H](O[C@@H]3O[C@@H]5CO[C@@H](C)O[C@H]5[C@H](O)[C@H]3O)[C@H]3COC(=O)[C@H]23)OCO4)cc(OC)c1O [Etoposide, etoposide]",cytotoxicity in cell viability assay,cell viability; concentrations up to ten micromolar,non-cytotoxic
same,effect on the anti-proliferative rapamycin dose response curve,[2],potentiate the anti-proliferative activity of rapamycin
COc1c(C)c2c(c(O)c1C/C=C(\C)CCC(=O)O)C(=O)OC2 [mycophenolic acid],in vivo elution from EVA/BMA basecoat compared with rapamycin,[6],elutes more completely over a shorter duration than the rapamycin
same,effect on the anti-proliferative rapamycin dose response curve,[4],potentiates the anti-proliferative activity of rapamycin
CC(/C=C/C(=O)NO)=C\[C@@H](C)C(=O)c1ccc(N(C)C)cc1 [trichostatin A],IC50,"[7]; human coronary artery smooth muscle cells, read-out: anti-proliferative IC50",~6 nM
same,inhibition of human coronary artery smooth muscle cell proliferation,[7]; in vitro cell culture,completely inhibit
same,anti-proliferative IC50,tumor cell lines,low nM range
"COc1cc2c(cc1O)CC[C@@H]1[C@@H]2CC[C@]2(C)[C@@H](O)CC[C@@H]12 [Panzem®, 2-methoxyestradiol]",cytotoxicity (MTS assay),[8],do not reduce human coronary artery smooth muscle cell survival
same,effect on the anti-proliferative rapamycin dose response curve,[2],increases the percent of inhibition of rapamycin alone
same,anti-proliferative activity alone,"[2]; synchronized cells, two percent fetal bovine serum",extremely effective inhibitor
